Measurements published in US20230133958A1, “COMPOUNDS USEFUL IN MODULATING EGFR AND PI3K” (Mekanistic Therapeutics LLC, priority 2021, published 2023).

Columns and labels:
DNA-PK = DNA-PK (Homo sapiens, UniProt P78527); assay: Z'-LYTE / Adapta biochemical kinase assay, DNA-PK; conditions: concentration of 100 nM/liter; read-out: Percent Inhibition of target enzymes, DNA-PK
Source text: (§1) The Z′-LYTE® biochemical assay employs a fluorescence-based, coupled-enzyme format and is based on the differential sensitivity of phosphorylated and non-phosphorylated peptides to proteolytic cleavage. The peptide substrate is labeled with two fluorophores—one at each end—that make up a FRET pair. In the primary reaction, the kinase transfers the gamma-phosphate of ATP to a single tyrosine, serine or threonine residue in a synthetic FRET-peptide. In the secondary reaction, a site-specific protease recognizes and cleaves non-phosphorylated FRET-peptides. Phosphorylation of FRET-peptides suppresses cleavage by the Development Reagent. Cleavage disrupts FRET between the donor (i.e., coumarin) and acceptor (i.e., fluorescein) fluorophores on the FRET-peptide, whereas uncleaved, phosphorylated FRET-peptides maintain FRET. A ratiometric method, which calculates the ratio (the Emission Ratio) of donor emission to acceptor emission after excitation of the donor fluorophore at 400 nm, is used to quantitate reaction progress.
(§2) A significant benefit of this ratiometric method for quantitating reaction progress is the elimination of well-to-well variations in FRET-peptide concentration and signal intensities. As a result, the assay yields very high Z′-factor values (>0.7) at a low percent phosphorylation.
(§3) Both cleaved and uncleaved FRET-peptides contribute to the fluorescence signals and therefore to the Emission Ratio. The extent of phosphorylation of the FRET-peptide can be calculated from the Emission Ratio. The Emission Ratio will remain low if the FRET-peptide is phosphorylated (i.e., no kinase inhibition) and will be high if the FRET-peptide is non-phosphorylated (i.e., kinase inhibition).
(§4) Enzyme: The ADAPTA universal kinase assay is a homogenous, fluorescent based immunoassay for the detection of ADP. In contrast to ATP depletion assays, the ADAPTA assay is extremely sensitive to ADP formation such that a majority of the signal change occurs in the first 10-20% conversion of ATP to ADP. This makes the ADAPTA universal kinase assay ideally suited for use with low activity kinases.
(§5) The principle of the ADAPTA universal kinase assay is outlined below. The assay itself can be divided into two phases: a kinase reaction phase, and an ADP detection phase. In the kinase reaction phase, all components required for the kinase reaction are added to the well, and the reaction is allowed to incubate for 60 minutes. After the reaction, a detection solution consisting of a europium labeled anti-ADP antibody, an Alexa Fluor® 647 labeled ADP tracer, and EDTA (to stop the kinase reaction) is added to the assay well. ADP formed by the kinase reaction (in the absence of an inhibitor) will displace the Alexa Fluor® 647 labeled ADP tracer from the antibody, resulting in a decrease in the TR-FRET signal. In the presence of an inhibitor, the amount of ADP formed by the kinase reaction is reduced, and the resulting intact antibody-tracer interaction results in a high TR-FRET signal.
(§6) Test Compounds: The Test Compounds are screened in 1% DMSO (final) in the well. For 10 point titrations, 3-fold serial dilutions are conducted from the starting concentration of the customer’s choosing.
(§7) Peptide/Kinase Mixtures: All Peptide/Kinase Mixtures are diluted to a 2X working concentration in the appropriate Kinase Buffer.
(§8) ATP Solution: All ATP Solutions are diluted to a 4X working concentration in Kinase Buffer (50 mM HEPES pH 7.5, 0.01% BRIJ-35, 10 mM MgCl2,1 mM EGTA). ATP Km apparent is previously determined using a Z′-LYTE® assay.
(§9) Development Reagent Solution: The Development Reagent is diluted in Development Buffer.
(§10) Assay Protocol: Bar-coded Corning, low volume NBS, black 384-wellplate (Corning Cat. #4514) 1. 2.5 µL - 4X Test Compound or 100 nL 100X plus 2.4 µL kinase buffer. 2. 5 µL - 2X Peptide/Kinase Mixture. 3. 2.5 µL - 4X ATP Solution. 4. 30-second plate shake. 5. 60-minute Kinase Reaction incubation at room temperature. 6. 5 µL - Development Reagent Solution. 7. […]

EGFR = EGFR (Homo sapiens, UniProt P00533); assay: Z'-LYTE / Adapta biochemical kinase assay, EGFR; conditions: concentration of 100 nM/liter; read-out: Percent Inhibition of target enzymes, EGFR
Source text: as §1, §2, §3, §4, §5, §6, §7, §8, §9, §10

PI3Kα = PI3Kα (Homo sapiens, UniProt P42336); assay: Z'-LYTE / Adapta biochemical kinase assay, PI3Kα; conditions: concentration of 100 nM/liter; read-out: Percent Inhibition of target enzymes, PI3K A
Source text: as §1, §2, §3, §4, §5, §6, §7, §8, §9, §10

Sequence of EGFR (P00533 25-1210): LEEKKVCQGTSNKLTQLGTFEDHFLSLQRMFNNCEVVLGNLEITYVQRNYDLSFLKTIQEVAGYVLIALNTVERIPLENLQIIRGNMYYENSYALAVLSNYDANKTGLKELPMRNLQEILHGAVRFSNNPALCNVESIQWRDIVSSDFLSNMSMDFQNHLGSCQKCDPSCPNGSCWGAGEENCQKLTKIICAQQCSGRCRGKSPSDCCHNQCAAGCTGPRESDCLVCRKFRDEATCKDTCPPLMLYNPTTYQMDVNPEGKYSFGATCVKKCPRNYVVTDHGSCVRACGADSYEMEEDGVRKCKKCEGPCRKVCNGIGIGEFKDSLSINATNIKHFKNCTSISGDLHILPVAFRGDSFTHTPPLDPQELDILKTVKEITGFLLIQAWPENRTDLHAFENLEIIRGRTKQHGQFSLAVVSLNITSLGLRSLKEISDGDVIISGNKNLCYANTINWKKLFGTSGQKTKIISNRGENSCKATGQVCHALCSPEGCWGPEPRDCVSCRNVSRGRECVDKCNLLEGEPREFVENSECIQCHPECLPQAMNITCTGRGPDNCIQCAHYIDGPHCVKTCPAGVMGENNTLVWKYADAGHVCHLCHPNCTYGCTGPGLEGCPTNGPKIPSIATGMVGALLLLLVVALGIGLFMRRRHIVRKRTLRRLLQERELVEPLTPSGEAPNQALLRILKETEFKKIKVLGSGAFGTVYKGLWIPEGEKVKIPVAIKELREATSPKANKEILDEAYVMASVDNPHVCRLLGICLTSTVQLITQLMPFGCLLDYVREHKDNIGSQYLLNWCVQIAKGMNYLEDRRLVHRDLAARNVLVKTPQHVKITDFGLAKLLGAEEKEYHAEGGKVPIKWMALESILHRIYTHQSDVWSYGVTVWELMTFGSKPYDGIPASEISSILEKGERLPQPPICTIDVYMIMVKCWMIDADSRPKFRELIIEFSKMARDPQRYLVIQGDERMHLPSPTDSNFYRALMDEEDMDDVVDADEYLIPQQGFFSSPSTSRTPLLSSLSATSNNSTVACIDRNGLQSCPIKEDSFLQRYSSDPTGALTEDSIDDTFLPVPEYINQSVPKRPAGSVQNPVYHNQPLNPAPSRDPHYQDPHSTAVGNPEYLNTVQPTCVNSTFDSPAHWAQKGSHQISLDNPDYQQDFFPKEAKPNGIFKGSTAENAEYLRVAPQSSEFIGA
Sequence of PI3Kα (P42336 whole entry): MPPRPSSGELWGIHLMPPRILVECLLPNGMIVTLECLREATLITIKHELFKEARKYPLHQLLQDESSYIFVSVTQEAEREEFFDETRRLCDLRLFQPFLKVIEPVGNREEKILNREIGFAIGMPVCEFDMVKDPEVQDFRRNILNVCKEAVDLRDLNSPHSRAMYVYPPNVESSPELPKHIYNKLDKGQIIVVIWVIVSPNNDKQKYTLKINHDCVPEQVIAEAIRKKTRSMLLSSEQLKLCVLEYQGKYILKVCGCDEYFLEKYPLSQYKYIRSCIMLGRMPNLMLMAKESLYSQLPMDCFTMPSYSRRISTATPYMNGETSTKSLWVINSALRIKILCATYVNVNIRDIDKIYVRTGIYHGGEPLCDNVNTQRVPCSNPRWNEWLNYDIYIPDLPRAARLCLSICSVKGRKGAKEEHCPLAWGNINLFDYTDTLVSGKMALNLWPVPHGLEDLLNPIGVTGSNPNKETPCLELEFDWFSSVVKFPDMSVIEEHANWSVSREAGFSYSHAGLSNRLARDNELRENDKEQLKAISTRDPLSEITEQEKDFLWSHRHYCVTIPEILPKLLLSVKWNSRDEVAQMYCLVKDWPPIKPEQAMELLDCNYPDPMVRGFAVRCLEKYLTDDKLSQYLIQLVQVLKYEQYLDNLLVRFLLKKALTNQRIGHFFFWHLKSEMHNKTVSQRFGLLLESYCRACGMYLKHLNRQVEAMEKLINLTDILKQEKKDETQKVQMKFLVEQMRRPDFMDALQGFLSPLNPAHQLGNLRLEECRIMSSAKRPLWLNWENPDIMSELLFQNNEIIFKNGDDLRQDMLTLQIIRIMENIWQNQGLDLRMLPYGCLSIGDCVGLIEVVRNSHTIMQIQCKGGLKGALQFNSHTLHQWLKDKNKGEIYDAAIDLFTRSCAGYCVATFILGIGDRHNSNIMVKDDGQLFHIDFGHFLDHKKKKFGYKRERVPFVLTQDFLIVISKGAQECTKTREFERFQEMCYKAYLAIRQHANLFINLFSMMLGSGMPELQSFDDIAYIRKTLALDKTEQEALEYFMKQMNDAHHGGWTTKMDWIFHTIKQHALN
Sequence of PI3Kα (P27986 whole entry partner): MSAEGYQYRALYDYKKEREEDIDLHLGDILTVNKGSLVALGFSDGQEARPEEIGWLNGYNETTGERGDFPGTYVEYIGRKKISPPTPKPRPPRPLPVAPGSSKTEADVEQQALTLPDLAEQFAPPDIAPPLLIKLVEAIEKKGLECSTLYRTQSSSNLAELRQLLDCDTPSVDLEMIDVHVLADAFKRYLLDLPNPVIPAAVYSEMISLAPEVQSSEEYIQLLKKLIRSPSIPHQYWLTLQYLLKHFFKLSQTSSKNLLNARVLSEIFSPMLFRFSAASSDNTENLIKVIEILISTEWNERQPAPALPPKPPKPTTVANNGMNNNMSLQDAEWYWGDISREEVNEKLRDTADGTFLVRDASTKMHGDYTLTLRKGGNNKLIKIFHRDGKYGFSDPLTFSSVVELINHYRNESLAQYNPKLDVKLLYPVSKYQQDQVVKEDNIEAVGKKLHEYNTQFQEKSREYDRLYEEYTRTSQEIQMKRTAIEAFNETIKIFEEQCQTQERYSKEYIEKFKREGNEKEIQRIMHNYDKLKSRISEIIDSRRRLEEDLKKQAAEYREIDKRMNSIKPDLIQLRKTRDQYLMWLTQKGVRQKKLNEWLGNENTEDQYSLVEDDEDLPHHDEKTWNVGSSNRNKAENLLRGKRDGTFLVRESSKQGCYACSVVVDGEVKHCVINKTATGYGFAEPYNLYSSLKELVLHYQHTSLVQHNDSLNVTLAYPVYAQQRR

| inhibition at 0.1 µM (DNA-PK) | inhibition at 0.1 µM (EGFR) | inhibition at 0.1 µM (PI3Kα) | Structure (SMILES) |
| --- | --- | --- | --- |
| > 90% | > 90% | 80 to 90% | Cc1ncc(-c2ccc3ncnc(Nc4cccc(Cl)c4F)c3c2)cc1NS(C)(=O)=O [Compound 1, N-[5-[4-(3-chloro-2-fluoro-anilino)quinazolin-6-yl]-2-methyl-3-pyridyl] methanesulfonamide] |
| 80 to 90% | > 90% | > 90% | COc1ncc(-c2ccc3ncnc(Nc4cccc(Cl)c4F)c3c2)cc1NS(C)(=O)=O [Compound 2, N-[5-[4-(3-chloro-2-fluoro-anilino)quinazolin-6-yl]-2-methoxy-3-pyridyl] methanesulfonamide] |
| 80 to 90% | > 90% | 10 to 80% | CS(=O)(=O)Nc1cncc(-c2ccc3ncnc(Nc4cccc(Cl)c4F)c3c2)c1 [Compound 3, N-[5-[4-(3-chloro-2-fluoro-anilino)quinazolin-6-yl]-3-pyridyl] methanesulfonamide] |
